From US5756423A, “Method of controlling plants by inhibition of farnesyl pyrophosphate synthase” (Zeneca Limited, priority 1997, dated 1998)
Like-named read-outs stand apart in the source and are kept apart here.

Legend:
[1] = test system: farnesyl pyrophosphate synthase in daffodil chromoplasts; test: inhibition of farnesyl pyrophosphate synthase in daffodil chromoplasts (14C-isopentenyl pyrophosphate incorporation); assay type: biochemical, Narcissus pseudonarcissus; settings: unit inferred, IC50 values in nM, read-out: IC50
In short: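 Daffodil chromoplasts in pH 7.7 sucrose/MgCl2/HEPES buffer with cysteine, NaF and BSA, started with ~3 micromolar 14C-isopentenyl pyrophosphate, 30 min at 30° C. Butanol-extractable radioactivity counted by scintillation; % residual activity calculated against zero-time and end-point no-inhibitor controls.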

[2] = test system: wild oat (Avena fatua) (AVEFA); test: post-emergent herbicidal test, wild oat; assay type: in vivo; settings: Avena fatua, post-emergence, read-out: AVEFA percent control
In short: (§1)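 Percent injury (0 = no effect, 100 = complete kill) scored 17–21 days post-treatment against untreated flats. Foliar spray at 1 or 4 kg/ha in deionized water plus 0.5% v/v Tween 20, onto greenhouse plants (29/21 °C, 14 h light) at 3–4 leaf (grasses) or 1–2 leaf (broadleaves) stage.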

[3] = test system: barnyard grass (Enchinochloa crusgalli) (ECHCG); test: post-emergent herbicidal test, barnyard grass; assay type: in vivo; settings: Echinochloa crus-galli, post-emergence, read-out: ECHCG percent control
In short: as §1

[4] = test system: green foxtail (Setaria viridis) (SETVI); test: post-emergent herbicidal test, green foxtail; assay type: in vivo; settings: Setaria viridis, post-emergence, read-out: SETVI percent control
In short: as §1

[5] = test system: velvetleaf (Abutilon theophrasti) (ABUTH); test: post-emergent herbicidal test, velvetleaf; assay type: in vivo; settings: Abutilon theophrasti, post-emergence, read-out: ABUTH percent control
In short: as §1

[6] = test system: morningglory (Ipomoea spp.) (IPOSS); test: post-emergent herbicidal test, morningglory; assay type: in vivo; settings: Ipomoea, post-emergence, read-out: IPOSS percent control
In short: as §1

[7] = test system: wild mustard (Brassica kaber), also known as Sinapis arvensis (SINAR); test: post-emergent herbicidal test, wild mustard; assay type: in vivo; settings: Brassica, post-emergence, read-out: SINAR percent control
In short: as §1

[8] = test system: yellow nutsedge (Cyperus esculentus) (CYPES); test: post-emergent herbicidal test, yellow nutsedge; assay type: in vivo; settings: Cyperus, post-emergence, read-out: CYPES percent control
In short: as §1

[9] = post-emergent, 1.0 kg/ha (*), 17-21 days after application

SMILES | IC50 ([1]; Table I) | IC50 ([1]; Table II) | pest or weed control at 1000 g/ha [2, 9] | pest or weed control at 1000 g/ha [3, 9] | pest or weed control at 1000 g/ha [4, 9] | pest or weed control at 1000 g/ha [5, 9] | pest or weed control at 1000 g/ha [6, 9] | pest or weed control at 1000 g/ha [7, 9] | pest or weed control at 1000 g/ha [8, 9] | pest or weed control at 1000 g/ha [2] | pest or weed control at 1000 g/ha [3] | pest or weed control at 1000 g/ha [4] | pest or weed control at 1000 g/ha [5] | pest or weed control at 1000 g/ha [6] | pest or weed control at 1000 g/ha [7] | pest or weed control at 1000 g/ha [8]
C=CCN(C)CC(P(=O)(O)O)P(=O)(O)O [Compound 41] | 60 nM | 60 nM | 100% | 95% | 95% | 85% | 85% | 100% | 60% |  |  |  |  |  |  | 
O=P(O)(O)C(CNC1CC1)P(=O)(O)O [Compound 42] | 27 nM | 27 nM |  |  |  |  |  |  |  | 100% | 95% | 95% | 10% | 90% | 100% | 20%
CC1CCCN1CC(P(=O)(O)O)P(=O)(O)O (stereo not drawn) [Compound 43] | 93 nM | 93 nM | 100% | 98% | 98% | 30% | 60% | 100% | 5% |  |  |  |  |  |  | 
CC(NCC(P(=O)(O)O)P(=O)(O)O)c1ccc(F)cc1 (stereo not drawn) [Compound 44] | 2510 nM | 2510 nM | 90% | 100% | 100% | 60% | 10% | 90% | 60% |  |  |  |  |  |  | 
O=P(O)(O)C(CN1CC=CCC1)P(=O)(O)O [Compound 45] | 26 nM | 26 nM | 100% | 100% | 100% | 90% | 100% | 100% | 50% |  |  |  |  |  |  | 
O=P(O)(O)C(CNC1Cc2ccccc2C1)P(=O)(O)O [Compound 46] | 440 nM | 440 nM | 50% | 15% | 20% | 5% | 0% | 5% | 10% |  |  |  |  |  |  | 
CC1(C)CCCN(CC(P(=O)(O)O)P(=O)(O)O)C1 [Compound 47] | 2280 nM | 2280 nM | 0% | 0% | 10% | 0% | 0% | 5% | 0% |  |  |  |  |  |  | 
CCC(C)NCC(P(=O)(O)O)P(=O)(O)O (stereo not drawn) [Compound 48] | 32 nM | 32 nM | 100% | 98% | 95% | 60% | 95% | 100% | 50% |  |  |  |  |  |  | 
O=P(O)(O)C(CNC1CCc2ccccc21)P(=O)(O)O (stereo not drawn) [Compound 49] | 1730 nM | 1730 nM | 60% | 50% | 15% | 5% | 10% | 10% | 10% |  |  |  |  |  |  | 
CC1CCCC1NCC(P(=O)(O)O)P(=O)(O)O (stereo not drawn) [Compound 50] | 232 nM | 232 nM | 50% | 60% | 85% | 5% | 5% | 85% | 5% |  |  |  |  |  |  | 
